molecular target: ROCK kinase; experiment: In vitro ROCK kinase inhibition activity evaluation (33P-ATP filter-binding); type: biochemical; design: key to ROCK inhibition activity: 1 μM ≦ + < 5 μM; 0.1 μM ≦ ++ < 1 μM; +++ < 0.1 μM; −− N/A; conditions: 1 nM ROCK kinase, 20 μM Long S6 Kinase substrate peptide, 2 h room temperature
Method: Biological Activity Experiment: In Vitro ROCK Kinase Inhibition Activity Evaluation
Experimental Objective: Test ROCK Inhibition IC50 Value of Invented Compounds
Buffer solution: 20 mM Hepes (pH 7.5), 10 mM MgCl2, 1 mM EGTA, 0.02% Brij35, 0.02 mg/ml BSA, 0.1 mM Na3VO4, 2 mM DTT, 1% DMSO
To a freshly prepared buffer solution was added ROCK substrate Long S6 Kinase substrate peptide, with concentration at 20 μM. 1 nM ROCK kinase was then added, and well stirred. A series of DMSO solution (starting from 10 μM, dilution factor 3) of testing article was added using Echo550. The mixture was incubated for 20 min at room temperature, then was added ^33P-ATP (radioactive intensity 10 μCi/μL) to initiate reaction and further reacted for 2 h at room temperature. The mixture was filtered through P81 ion exchange paper (Whatman #3698-915), and washed by 0.75% phosphoric acid. The intensity of radiation was measured by Filter-Binding method.
The inhibition activity of the testing articles were measured by comparing the residue kinase activity to blank substrate (pure DMSO). Using Prism software ((GraphPad Software, San Diego Calif., USA) to calculate IC50 and curve.

ROCK inhibition activity	SMILES	IC50
	O=S(=O)(c1cccc2cnccc12)N1CC[C@@H]2NCC[C@@H]21 (stereo in doubt) [Example 1, 5-((hexahydropyrrolo[3,2-b]pyrrol-1(2H)-yl)sulfonyl)isoquinoline]	0.1 to 1 µM
	O=S(=O)(c1cccc2cnccc12)N1C[C@@H]2CCN[C@@H]2C1 (stereo in doubt) [Example 2, 5-((hexahydropyrrolo[3,4-b]pyrrol-5(1H)-yl)sulfonyl)isoquinoline]	0.1 to 1 µM
	O=S(=O)(c1cccc2cnccc12)N1C[C@H]2CCCN[C@H]2C1 (stereo in doubt) [Example 3, 5-((hexahydro-1H-pyrrolo[3,4-b]pyridin-6(2H)-yl)sulfonyl)isoquinoline]	0.1 to 1 µM
	O=S(=O)(c1cccc2cncc(Cl)c12)N1CC[C@@H]2NCC[C@@H]21 (stereo in doubt) [Example 16, 4-chloro-5-((hexahydropyrrolo[3,2-b]pyrrol-1(2H)-yl)sulfonyl)isoquinoline]	0.1 to 1 µM
	O=S(=O)(c1cccc2cncc(Cl)c12)N1C[C@@H]2CCN[C@@H]2C1 (stereo in doubt) [Example 17, 4-chloro-5-((hexahydropyrrolo[3,4-b]pyrrol-5 (1H)-yl)sulfonyl)isoquinoline]	0.1 to 1 µM
	O=S(=O)(c1cccc2cncc(Cl)c12)N1C[C@H]2CCCN[C@H]2C1 (stereo in doubt) [Example 18, 4-chloro-5-((hexahydro-1H-pyrrolo[3,4-b]pyridin-6(2H)-yl)sulfonyl)isoquinoline]	0.1 to 1 µM
	O=S(=O)(c1cccc2cncc(Cl)c12)N1C[C@H]2CN[C@H]2C1 (stereo in doubt) [Example 19, 5-(3,6-diazabicyclo[3.2.0]heptan-3-ylsulfonyl)-4-chloroisoquinoline]	< 0.1 µM
	O=S(=O)(c1cccc2cncc(F)c12)N1CC[C@@H]2NCC[C@@H]21 (stereo in doubt) [Example 24, 4-fluoro-5-((hexahydropyrrolo[3,2-b]pyrrol-1(2H)-yl)sulfonyl)isoquinoline]	1 to 5 µM
	O=S(=O)(c1cccc2cncc(F)c12)N1C[C@H]2CCCN[C@H]2C1 (stereo in doubt) [Example 26, 4-fluoro-5-((hexahydro-1H-pyrrolo[3,4-b]pyridin-6(2H)-yl)sulfonyl)isoquinoline]	0.1 to 1 µM
	O=S(=O)(c1cccc2cncc(F)c12)N1C[C@H]2CN[C@H]2C1 (stereo in doubt) [Example 27, 5-(3,6-diazabicyclo[3.2.0]heptan-3-ylsulfonyl)-4-fluoroisoquinoline]	0.1 to 1 µM
−−	O=S(=O)(c1cccc2cncc(C(F)F)c12)N1C[C@H]2CCCN[C@H]2C1 (stereo in doubt) [Example 33, 4-(difluoromethyl)-5-((hexahydro-1H-pyrrolo[3,4-b]pyridin-6(2H)-yl)sulfonyl)isoquinoline]	
	Cc1cncc2cccc(S(=O)(=O)N3CC[C@@H]4NCC[C@@H]43)c12 (stereo in doubt) [Example 37, 5-((hexahydropyrrolo[3,2-b]pyrrol-1(2H)-yl)sulfonyl)-4-methylisoquinoline]	0.1 to 1 µM
	Cc1cnc(O)c2cccc(S(=O)(=O)N3C[C@@H]4CCN[C@@H]4C3)c12 (stereo in doubt) [Example 39, 5-((hexahydropyrrolo[3,4-b]pyrrol-5(1H)-yl)sulfonyl)-4-methylisoquinolin-1-ol]	0.1 to 1 µM
	Cc1cncc2cccc(S(=O)(=O)N3C[C@H]4CCCN[C@H]4C3)c12 (stereo in doubt) [Example 40, 5-((hexahydro-1H-pyrrolo[3,4-b]pyridin-6(2H)-yl)sulfonyl)-4-methylisoquinoline]	< 0.1 µM
	Cc1cncc2cccc(S(=O)(=O)N3C[C@H]4CN[C@H]4C3)c12 (stereo in doubt) [Example 41, 5-(3,6-diazabicyclo[3.2.0]heptan-3-ylsulfonyl)-4-methylisoquinoline]	< 0.1 µM
−−	O=S(=O)(c1cccc2cncc(C(F)(F)F)c12)N1C[C@@H]2CCN[C@@H]2C1 (stereo in doubt) [Example 46, 5-((hexahydropyrrolo[3,4-b]pyrrol-5 (1H)-yl)sulfonyl)-4-(trifluoromethyl)isoquinoline]	
	COc1cncc2cccc(S(=O)(=O)N3CC[C@@H]4NCC[C@@H]43)c12 (stereo in doubt) [Example 47, 5-((hexahydropyrrolo[3,2-b]pyrrol-1(2H)-yl)sulfonyl)-4-methoxyisoquinoline]	1 to 5 µM
	COc1cncc2cccc(S(=O)(=O)N3C[C@@H]4CCN[C@@H]4C3)c12 (stereo in doubt) [Example 48, 5-((hexahydropyrrolo[3,4-b]pyrrol-5 (1H)-yl)sulfonyl)-4-methoxyisoquinoline]	1 to 5 µM

ROCK inhibition activity	SMILES	IC50
	COc1cncc2cccc(S(=O)(=O)N3C[C@H]4CCCN[C@H]4C3)c12 (stereo in doubt) [Example 49, 5-((hexahydro-1H-pyrrolo[3,4-b]pyridin-6(2H)-yl)sulfonyl)-4-methoxyisoquinoline]	1 to 5 µM
	COc1cncc2cccc(S(=O)(=O)N3C[C@H]4CN[C@H]4C3)c12 (stereo in doubt) [Example 50, 5-(3,6-diazabicyclo[3.2.0]heptan-3-ylsulfonyl)-4-methoxyisoquinoline]	1 to 5 µM
	O=S(=O)(c1cccc2cnccc12)N1CCC2NCCCC2C1 (stereo not drawn) [Example 5, 6-(isoquinolin-5-ylsulfonyl)decahydro-1,6-naphthyridine]	0.1 to 1 µM
	O=S(=O)(c1cccc2cnccc12)N1CCC2NCCCC21 (stereo not drawn) [Example 6, 5-((octahydro-1H-pyrrolo[3,2-b]pyridin-1-yl)sulfonyl)isoquinoline]	0.1 to 1 µM
	O=S(=O)(c1cccc2cnccc12)N1C[C@H]2CNC[C@H]2C1 [Example 7, 5-((hexahydropyrrolo[3,4-c]pyrrol-2(1H)-yl)sulfonyl)isoquinoline]	0.1 to 1 µM
	O=S(=O)(c1cccc2cnccc12)N1CC2CCNCC2C1 (stereo not drawn) [Example 8, 5-((hexahydro-1H-pyrrolo[3,4-c]pyridin-2(3H)-yl)sulfonyl)isoquinoline]	0.1 to 1 µM
	O=S(=O)(c1cccc2cnccc12)N1CCC2CCNC2C1 (stereo not drawn) [Example 9, 5-((hexahydro-1H-pyrrolo[2,3-c]pyridin-6(2H)-yl)sulfonyl) isoquinoline]	1 to 5 µM
−−	NC1CN(S(=O)(=O)c2cccc3cnccc23)CC12CC2 (stereo not drawn) [Example 10, 5-(isoquinolin-5-ylsulfonyl)-5-azaspiro[2.4]heptan-7-amine]	
−−	CCNC1CN(S(=O)(=O)c2cccc3cnccc23)CC12CC2 (stereo not drawn) [Example 11, N-ethyl-5-(isoquinolin-5-ylsulfonyl)-5-azaspiro[2.4]heptan-7-amine]	
	NC1CCN(S(=O)(=O)c2cccc3cnccc23)C12CC2 (stereo not drawn) [Example 13, 4-(isoquinolin-5-ylsulfonyl)-4-azaspiro[2.4]heptan-7-amine]	< 0.1 µM
	O=S(=O)(c1cccc2cnccc12)N1CCC2NCCCCC21 (stereo not drawn) [Example 14, 1-(isoquinolin-5-ylsulfonyl)decahydropyrrolo[3,2-b]azepine]	0.1 to 1 µM
	O=S(=O)(c1cccc2cnccc12)N1CCC2CNCC2C1 (stereo not drawn) [Example 15, 5-((hexahydro-1H-pyrrolo[3,4-c]pyridin-5(6H)-yl)sulfonyl)isoquinoline]	0.1 to 1 µM
	O=S(=O)(c1cccc2cncc(Cl)c12)N1CCC2NCCCC2C1 (stereo not drawn) [Example 20, 6-((4-chloroisoquinolin-5-yl)sulfonyl)decahydro-1,6-naphthyridine]	0.1 to 1 µM
	O=S(=O)(c1cccc2cncc(Cl)c12)N1CCC2NCCCC21 (stereo not drawn) [Example 21, 4-chloro-5-((octahydro-1H-pyrrolo[3,2-b]pyridin-1-yl)sulfonyl)isoquinoline]	0.1 to 1 µM
	O=S(=O)(c1cccc2cncc(Cl)c12)N1C[C@H]2CNC[C@H]2C1 [Example 22, 4-chloro-5-((hexahydropyrrolo[3,4-c]pyrrol-2(1H)-yl)sulfonyl)isoquinoline]	0.1 to 1 µM
	O=S(=O)(c1cccc2cncc(Cl)c12)N1CC2CCNCC2C1 (stereo not drawn) [Example 23, 4-chloro-5-((hexahydro-1H-pyrrolo[3,4-c]pyridin-2(3H)-yl)sulfonyl)isoquinoline]	0.1 to 1 µM
	O=S(=O)(c1cccc2cncc(F)c12)N1C[C@@H]2CCN[C@@H]2C1 [Example 25, 4-fluoro-5-((hexahydropyrrolo[3,4-b]pyrrol-5(1H)-yl)sulfonyl)isoquinoline]	0.1 to 1 µM
	O=S(=O)(c1cccc2cncc(F)c12)N1CCC2NCCCC21 (stereo not drawn) [Example 28, 4-fluoro-5-((octahydro-1H-pyrrolo[3,2-b]pyridin-1-yl)sulfonyl)isoquinoline]	0.1 to 1 µM

SMILES	ROCK inhibition activity	IC50
O=S(=O)(c1cccc2cncc(C(F)F)c12)N1CC[C@@H]2NCC[C@@H]21 (stereo in doubt) [Example 31, 4-(difluoromethyl)-5-((hexahydropyrrolo[3,2-b]pyrrol-1(2H)-yl)sulfonyl)isoquinoline]	−−	
O=S(=O)(c1cccc2cncc(C(F)F)c12)N1C[C@@H]2CCN[C@@H]2C1 (stereo in doubt) [Example 32, 4-(difluoromethyl)-5-((hexahydropyrrolo[3,4-b]pyrrol-5(1H)-yl)sulfonyl)isoquinoline]	−−	
O=S(=O)(c1cccc2cncc(C(F)F)c12)N1C[C@H]2CN[C@H]2C1 (stereo in doubt) [Example 34, 5-(3,6-diazabicyclo[3.2.0]heptan-3-ylsulfonyl)-4-(difluoromethyl)isoquinoline]	−−	

From patent US9856264B2, “Isoquinolinesulfonyl derivative as RHO kinase inhibitor” (MEDSHINE DISCOVERY INC., priority 2014, dated 2018)
